Reference: US20240067693A1, “POLYPEPTIDES AND USES THEREOF” (MEDIMMUNE LIMITED, priority 2020, published 2024)
Numbered stars: 1 amine (or outer) side, 2 acyl side, 3 side chain; on linkers, the order of the positions; unused ones are H or OH. Bridge positions count the residues as written; N and C are the ends. Square brackets hold non-standard residues; d marks the D form. Side chains are listed from the residue outwards. Peptide text beside a SMILES is read from it. * marks the point of attachment. C18 diacid = O=C(O)CCCCCCCCCCCCCCCCC(=O)*; γGlu = O=C(O)[C@H](CCC(=O)[*:2])N[*:1]; αMeS = C[C@](N)(CO)C(=O)O; Dab = NCC[C@H](N)C(=O)O; Aib = CC(C)(N)C(=O)O

Tests used:
[1] = molecular target: T1, human amylin receptor (calcitonin receptor co-expressed with receptor activity modifying protein, RAMP3) (hAMYR3) (Homo sapiens, UniProt O60896+P30988); assay: cAMP production in 1321N1 cells with stable recombinant expression of human amylin receptor (hAMYR3); assay type: cell-based; conditions: for Ratio (selectivity hAMYR vs hCTR, ratio of EC50 values at the two receptors): EC50 hCTR / EC50 hAMYR3; for EC50: cAMP, 1321N1 cells, assay buffer with 0.1% BSA, read-out: EC50 (pM) hAMYR3
T1 construct: expressed in transfected cells
T1 sequence (P30988 25-474): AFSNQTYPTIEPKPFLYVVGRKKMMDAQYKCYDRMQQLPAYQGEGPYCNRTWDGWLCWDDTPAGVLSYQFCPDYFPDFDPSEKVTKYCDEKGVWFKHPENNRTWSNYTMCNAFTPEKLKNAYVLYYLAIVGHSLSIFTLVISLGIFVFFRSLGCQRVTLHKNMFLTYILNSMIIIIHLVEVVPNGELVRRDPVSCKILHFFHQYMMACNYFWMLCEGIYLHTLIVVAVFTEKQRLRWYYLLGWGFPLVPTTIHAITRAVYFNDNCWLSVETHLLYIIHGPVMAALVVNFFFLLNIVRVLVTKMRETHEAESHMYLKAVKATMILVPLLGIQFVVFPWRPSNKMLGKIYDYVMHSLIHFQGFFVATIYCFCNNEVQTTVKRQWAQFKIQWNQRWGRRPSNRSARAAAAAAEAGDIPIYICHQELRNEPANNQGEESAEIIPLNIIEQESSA
T1 sequence (O60896 24-148 partner): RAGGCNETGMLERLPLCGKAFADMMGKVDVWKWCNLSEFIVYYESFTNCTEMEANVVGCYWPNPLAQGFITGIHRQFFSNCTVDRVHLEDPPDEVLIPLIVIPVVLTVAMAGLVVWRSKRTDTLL
How it was run: (§1)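 Receptor-expressing cells (human receptors in 1321N1, rat receptors in HEK) incubated 30 min at room temperature with peptide in HBSS/HEPES pH 7.4, 0.1% BSA, 0.5 mM IBMX. cAMP read by HTRF; EC50 from 4-parameter fit as % of maximal amylin or calcitonin response.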

[2] = molecular target: T2, human calcitonin receptor (hCTR) (Homo sapiens, UniProt P30988); assay: cAMP production in 1321N1 cells with stable recombinant expression of human calcitonin receptor (hCTR); assay type: cell-based; conditions: cAMP, 1321N1 cells, assay buffer with 0.1% BSA; read-out: EC50 (pM) hCTR
T2 construct: expressed in transfected cells
T2 sequence (P30988 25-474): T1 sequence (P30988 25-474)
How it was run: as §1

Row | Ratio (selectivity hAMYR vs hCTR, ratio of EC50 values at the two receptors) [1] | EC50 [1] [pM] | EC50 [2] [pM] | SMILES
1 | 4 | 349 | 1280 | CC[C@H](C)[C@H](NC(=O)C(C)(C)NC(=O)CNC(=O)[C@H](Cc1ccccc1)NC(=O)[C@H](CC(N)=O)NC(=O)[C@H](CCN)NC(=O)[C@H](CO)NC(=O)[C@H](CO)NC(=O)[C@H](Cc1c[nH]cn1)NC(=O)[C@@H](NC(=O)[C@H](CC(C)C)NC(=O)[C@H](Cc1ccccc1)NC(=O)[C@H](CC(N)=O)NC(=O)[C@H](C)NC(=O)[C@H](CC(C)C)NC(=O)[C@H](CCCNC(=N)N)NC(=O)[C@H](CCC(N)=O)NC(=O)[C@@H](NC(=O)[C@H](C)NC(=O)[C@@H]1CSSC[C@H](NC(=O)[C@H](CCCCN)NC(=O)[C@@H](N)CCCCNC(=O)CC[C@H](NC(=O)CCCCCCCCCCCCCCCCC(=O)O)C(=O)O)C(=O)N[C@@H](CC(N)=O)C(=O)N[C@@H]([C@@H](C)O)C(=O)N[C@@H](C)C(=O)N[C@@H]([C@@H](C)O)C(=O)N1)[C@@H](C)O)C(C)C)C(=O)N[C@@H](CC(C)C)C(=O)N1CCC[C@H]1C(=O)N1CCC[C@H]1C(=O)N[C@H](C(=O)N[C@@H](CC(N)=O)C(=O)N[C@H](C(=O)NCC(=O)N[C@@H](CO)C(=O)N[C@@H](CC(N)=O)C(=O)N[C@H](C(=O)N[C@@H](Cc1ccc(O)cc1)C(N)=O)[C@@H](C)O)C(C)C)[C@@H](C)O [Peptide 31, K(γE-C18diacid)K[CNTATC]ATQRLANFLVHSS(Dab)NFG(Aib)ILPPTNVGSNTY-amide] (H-K([γGlu-C18 diacid])KCNTATCATQRLANFLVHSS[Dab]NFG[Aib]ILPPTNVGSNTY-NH2; disulfide 3-8; N-terminus assumed)
2 | 20.5 | 737 | 15100 | CC[C@H](C)[C@H](NC(=O)[C@@H]1CCCN1C(=O)CNC(=O)[C@H](Cc1ccccc1)NC(=O)[C@H](CC(N)=O)NC(=O)[C@H](Cc1c[nH]cn1)NC(=O)[C@H](CO)NC(=O)[C@H](CO)NC(=O)[C@H](Cc1c[nH]cn1)NC(=O)C(C)(C)NC(=O)[C@H](CC(C)C)NC(=O)[C@H](Cc1ccccc1)NC(=O)[C@H](CC(N)=O)NC(=O)[C@H](C)NC(=O)[C@H](CC(C)C)NC(=O)[C@H](CCCNC(=N)N)NC(=O)[C@H](CCC(N)=O)NC(=O)[C@@H](NC(=O)[C@H](C)NC(=O)[C@@H]1CSSC[C@H](NC(=O)[C@H](CCCCN)NC(=O)[C@@H](N)CCCCNC(=O)CC[C@H](NC(=O)CCCCCCCCCCCCCCCCC(=O)O)C(=O)O)C(=O)N[C@@H](CC(N)=O)C(=O)N[C@@H]([C@@H](C)O)C(=O)N[C@@H](C)C(=O)N[C@@H]([C@@H](C)O)C(=O)N1)[C@@H](C)O)C(=O)N[C@@H](CC(C)C)C(=O)N1CCC[C@H]1C(=O)N1CCC[C@H]1C(=O)N[C@H](C(=O)N[C@@H](CC(N)=O)C(=O)N[C@H](C(=O)NCC(=O)N[C@@H](CO)C(=O)N[C@@H](CC(N)=O)C(=O)N[C@H](C(=O)N[C@@H](Cc1ccc(O)cc1)C(N)=O)[C@@H](C)O)C(C)C)[C@@H](C)O [Peptide 131] (H-K([γGlu-C18 diacid])KCNTATCATQRLANFL[Aib]HSSHNFGPILPPTNVGSNTY-NH2; disulfide 3-8)
3 | 3 | 119 | 311 | CC[C@H](C)[C@H](NC(=O)[C@@H]1CCCN1C(=O)CNC(=O)[C@H](Cc1ccccc1)NC(=O)[C@H](CC(N)=O)NC(=O)C(C)(C)NC(=O)[C@H](CO)NC(=O)[C@H](CO)NC(=O)[C@H](Cc1c[nH]cn1)NC(=O)C(C)(C)NC(=O)[C@H](CC(C)C)NC(=O)[C@H](Cc1ccccc1)NC(=O)[C@H](Cc1c[nH]cn1)NC(=O)[C@H](C)NC(=O)[C@H](CC(C)C)NC(=O)[C@H](CCCNC(=N)N)NC(=O)[C@H](CCC(N)=O)NC(=O)[C@@H](NC(=O)[C@H](C)NC(=O)[C@@H]1CSSC[C@H](NC(=O)[C@H](CCCCN)NC(=O)[C@@H](N)CCCCNC(=O)CC[C@H](NC(=O)CCCCCCCCCCCCCCCCC(=O)O)C(=O)O)C(=O)N[C@@H](CC(N)=O)C(=O)N[C@@H]([C@@H](C)O)C(=O)N[C@@H](C)C(=O)N[C@@H]([C@@H](C)O)C(=O)N1)[C@@H](C)O)C(=O)N[C@@H](CC(C)C)C(=O)N1CCC[C@H]1C(=O)N1CCC[C@H]1C(=O)N[C@H](C(=O)N[C@@H](CCC(=O)O)C(=O)N[C@H](C(=O)NCC(=O)N[C@@H](CO)C(=O)N[C@@H](CC(N)=O)C(=O)N[C@H](C(=O)N[C@@H](Cc1ccc(O)cc1)C(N)=O)[C@@H](C)O)C(C)C)[C@@H](C)O [Peptide 86, K(γE-C18diacid)K[CNTATC]ATQRLAHFL(Aib)HSS(Aib)NFGPILPPTEVGSNTY-amide] (H-K([γGlu-C18 diacid])KCNTATCATQRLAHFL[Aib]HSS[Aib]NFGPILPPTEVGSNTY-NH2; disulfide 3-8)
4 | 40 | 162 | 6540 | CC[C@H](C)[C@H](NC(=O)[C@@H]1CCCN1C(=O)CNC(=O)[C@H](Cc1ccccc1)NC(=O)[C@H](CC(N)=O)NC(=O)[C@H](CC(N)=O)NC(=O)[C@](C)(CO)NC(=O)[C@H](CO)NC(=O)[C@H](Cc1c[nH]cn1)NC(=O)[C@@H](NC(=O)[C@H](CC(C)C)NC(=O)[C@H](Cc1ccccc1)NC(=O)[C@H](CC(N)=O)NC(=O)[C@H](C)NC(=O)[C@H](CC(C)C)NC(=O)[C@H](CCCNC(=N)N)NC(=O)[C@H](CCC(N)=O)NC(=O)[C@@H](NC(=O)[C@H](C)NC(=O)[C@@H]1CSSC[C@H](NC(=O)[C@@H](N)CCCCNC(=O)CC[C@H](NC(=O)CC[C@H](NC(=O)CCCCCCCCCCCCCCCCC(=O)O)C(=O)O)C(=O)O)C(=O)N[C@@H](CC(N)=O)C(=O)N[C@@H]([C@@H](C)O)C(=O)N[C@@H](C)C(=O)N[C@@H]([C@@H](C)O)C(=O)N1)[C@@H](C)O)C(C)C)C(=O)N[C@@H](CC(C)C)C(=O)N1CCC[C@H]1C(=O)N1CCC[C@H]1C(=O)N[C@H](C(=O)N[C@@H](CC(N)=O)C(=O)N[C@H](C(=O)NCC(=O)N[C@@H](CO)C(=O)N[C@@H](CC(N)=O)C(=O)N[C@H](C(=O)N[C@@H](Cc1ccc(O)cc1)C(N)=O)[C@@H](C)O)C(C)C)[C@@H](C)O [Peptide 22, K(γE-γE-C18diacid)[CNTATC]ATQRLANFLVHS(αMeSer)NNFGPILPPTNVGSNTY-amide] (H-K([γGlu-γGlu-C18 diacid])CNTATCATQRLANFLVHS[αMeS]NNFGPILPPTNVGSNTY-NH2; disulfide 2-7; N-terminus assumed)
